From ChEMBL document CHEMBL3112395, “Synthesis and structure-activity relationship studies of N-terminal analogues of the antimicrobial peptide tridecaptin A(1)” (J Med Chem, 2014)
Values after ≈ are worked out from the molar mass of the structure shown.

Columns and labels:
Format in all cases: functional
[1] = test system: Enterococcus faecalis; experiment: Antibacterial activity against Enterococcus faecalis ATCC 29212 assessed as growth inhibition by broth dilution method
[2] = test system: Klebsiella pneumoniae; experiment: Antibacterial activity against Klebsiella pneumoniae ATCC 13883 assessed as growth inhibition by broth dilution method
[3] = test system: Salmonella enterica; experiment: Antibacterial activity against Salmonella enterica ATCC 13311 assessed as growth inhibition by broth dilution method
[4] = test system: Enterococcus faecium; experiment: Antibacterial activity against Enterococcus faecium ATCC 19434 assessed as growth inhibition by broth dilution method
[5] = test system: Pseudomonas aeruginosa; experiment: Antibacterial activity against Pseudomonas aeruginosa ATCC 27853 assessed as growth inhibition by broth dilution method
[6] = test system: Escherichia coli; experiment: Antibacterial activity against Escherichia coli ATCC 25922 assessed as growth inhibition by broth dilution method
[7] = test system: Campylobacter jejuni; experiment: Antibacterial activity against Campylobacter jejuni NCTC 11168 assessed as growth inhibition by broth dilution method
[8] = test system: Acinetobacter baumannii; experiment: Antibacterial activity against Acinetobacter baumannii ATCC 19606 assessed as growth inhibition by broth dilution method
[9] = test system: Staphylococcus aureus; experiment: Antibacterial activity against Staphylococcus aureus ATCC 29213 assessed as growth inhibition by broth dilution method
[10] = test system: Listeria monocytogenes; experiment: Antibacterial activity against Listeria monocytogenes ATCC […] assessed as growth inhibition by broth dilution method

| Structure (SMILES) | MIC [1] [µg/mL] | MIC [2] [µg/mL] | MIC [3] [µg/mL] | MIC [4] [µg/mL] | MIC [5] [µg/mL] | MIC [6] [µg/mL] | MIC [7] [µg/mL] | MIC [8] [µg/mL] | MIC [9] [µg/mL] | MIC [10] [µg/mL] |
| --- | --- | --- | --- | --- | --- | --- | --- | --- | --- | --- |
| CC[C@H](C)[C@@H](NC(=O)[C@@H](NC(=O)[C@H](CCC(=O)O)NC(=O)[C@H](Cc1ccccc1)NC(=O)[C@@H](CCN)NC(=O)[C@H](CCN)NC(=O)[C@H](CO)NC(=O)[C@@H](Cc1c[nH]c2ccccc12)NC(=O)[C@@H](CO)NC(=O)CNC(=O)[C@@H](CCN)NC(=O)[C@H](NC(=O)COCCOCCOC)C(C)C)C(C)C)C(=O)N[C@@H](C)C(=O)O | > 100 | > 100 | > 100 | > 100 | > 100 | > 100 | > 100 | > 100 | > 100 | > 100 |
| CC[C@H](C)[C@@H](NC(=O)[C@@H](NC(=O)[C@H](CCC(=O)O)NC(=O)[C@H](Cc1ccccc1)NC(=O)[C@@H](CCN)NC(=O)[C@H](CCN)NC(=O)[C@H](CO)NC(=O)[C@@H](Cc1c[nH]c2ccccc12)NC(=O)[C@@H](CO)NC(=O)CNC(=O)[C@@H](CCN)NC(=O)[C@H](NC(=O)CC12CC3CC(CC(C3)C1)C2)C(C)C)C(C)C)C(=O)N[C@@H](C)C(=O)O | 50 (≈ 31.8 µM) | 12.5 (≈ 7.96 µM) | 6.25 (≈ 3.98 µM) | 50 (≈ 31.8 µM) | 50 (≈ 31.8 µM) | 6.25 (≈ 3.98 µM) | 1.56 (≈ 0.993 µM) | 12.5 (≈ 7.96 µM) | 50 (≈ 31.8 µM) | 25 (≈ 15.9 µM) |
| CCCCCCC(=O)N[C@@H](C(=O)N[C@H](CCN)C(=O)NCC(=O)N[C@H](CO)C(=O)N[C@H](Cc1c[nH]c2ccccc12)C(=O)N[C@@H](CO)C(=O)N[C@@H](CCN)C(=O)N[C@H](CCN)C(=O)N[C@@H](Cc1ccccc1)C(=O)N[C@@H](CCC(=O)O)C(=O)N[C@H](C(=O)N[C@@H](C(=O)N[C@@H](C)C(=O)O)[C@@H](C)CC)C(C)C)C(C)C | > 100 | 6.25 (≈ 4.15 µM) | 12.5 (≈ 8.3 µM) | > 100 | 50 (≈ 33.2 µM) | 6.25 (≈ 4.15 µM) | 1.56 (≈ 1.04 µM) | 12.5 (≈ 8.3 µM) | > 100 | 50 (≈ 33.2 µM) |
| CC[C@@H](C)CC[C@H](O)CC(=O)N[C@@H](C(=O)N[C@H](CCN)C(=O)NCC(=O)N[C@H](CO)C(=O)N[C@H](Cc1c[nH]c2ccccc12)C(=O)N[C@@H](CO)C(=O)N[C@@H](CCN)C(=O)N[C@H](CCN)C(=O)N[C@@H](Cc1ccccc1)C(=O)N[C@@H](CCC(=O)O)C(=O)N[C@H](C(=O)N[C@@H](C(=O)N[C@@H](C)C(=O)O)[C@@H](C)CC)C(C)C)C(C)C | > 100 | 12.5 (≈ 8.06 µM) | 25 (≈ 16.1 µM) | > 100 | 100 (≈ 64.5 µM) | 12.5 (≈ 8.06 µM) | 3.13 (≈ 2.02 µM) | 50 (≈ 32.2 µM) | > 100 | > 100 |
| CC[C@@H](C)CC[C@@H](O)CC(=O)N[C@@H](C(=O)N[C@H](CCN)C(=O)NCC(=O)N[C@H](CO)C(=O)N[C@H](Cc1c[nH]c2ccccc12)C(=O)N[C@@H](CO)C(=O)N[C@@H](CCN)C(=O)N[C@H](CCN)C(=O)N[C@@H](Cc1ccccc1)C(=O)N[C@@H](CCC(=O)O)C(=O)N[C@H](C(=O)N[C@@H](C(=O)N[C@@H](C)C(=O)O)[C@@H](C)CC)C(C)C)C(C)C | > 100 | 6.25 (≈ 4.03 µM) | 6.25 (≈ 4.03 µM) | > 100 | 50 (≈ 32.2 µM) | 3.13 (≈ 2.02 µM) | 3.13 (≈ 2.02 µM) | 12.5 (≈ 8.06 µM) | > 100 | 100 (≈ 64.5 µM) |
| CCCCCCCCCC(=O)N[C@@H](C(=O)N[C@H](CCN)C(=O)NCC(=O)N[C@H](CO)C(=O)N[C@H](Cc1c[nH]c2ccccc12)C(=O)N[C@@H](CO)C(=O)N[C@@H](CCN)C(=O)N[C@H](CCN)C(=O)N[C@@H](Cc1ccccc1)C(=O)N[C@@H](CCC(=O)O)C(=O)N[C@H](C(=O)N[C@@H](C(=O)N[C@@H](C)C(=O)O)[C@@H](C)CC)C(C)C)C(C)C | > 100 | 6.25 (≈ 4.04 µM) | 12.5 (≈ 8.07 µM) | 100 (≈ 64.6 µM) | > 100 | 6.25 (≈ 4.04 µM) | 0.4 (≈ 0.258 µM) | 12.5 (≈ 8.07 µM) | > 100 | 25 (≈ 16.1 µM) |
| CCCCCCCCC(=O)N[C@@H](C(=O)N[C@H](CCN)C(=O)NCC(=O)N[C@H](CO)C(=O)N[C@H](Cc1c[nH]c2ccccc12)C(=O)N[C@@H](CO)C(=O)N[C@@H](CCN)C(=O)N[C@H](CCN)C(=O)N[C@@H](Cc1ccccc1)C(=O)N[C@@H](CCC(=O)O)C(=O)N[C@H](C(=O)N[C@@H](C(=O)N[C@@H](C)C(=O)O)[C@@H](C)CC)C(C)C)C(C)C | 100 (≈ 65.2 µM) | 12.5 (≈ 8.14 µM) | 6.25 (≈ 4.07 µM) | 100 (≈ 65.2 µM) | 100 (≈ 65.2 µM) | 12.5 (≈ 8.14 µM) | 0.78 (≈ 0.508 µM) | 50 (≈ 32.6 µM) | 100 (≈ 65.2 µM) | 25 (≈ 16.3 µM) |
| CC[C@H](C)CC[C@H](O)CC(=O)N[C@@H](C(=O)N[C@H](CCN)C(=O)NCC(=O)N[C@H](CO)C(=O)N[C@H](Cc1c[nH]c2ccccc12)C(=O)N[C@@H](CO)C(=O)N[C@@H](CCN)C(=O)N[C@H](CCN)C(=O)N[C@@H](Cc1ccccc1)C(=O)N[C@@H](CCC(=O)O)C(=O)N[C@H](C(=O)N[C@@H](C(=O)N[C@@H](C)C(=O)O)[C@@H](C)CC)C(C)C)C(C)C | > 100 | 6.25 (≈ 4.03 µM) | 6.25 (≈ 4.03 µM) | > 100 | 50 (≈ 32.2 µM) | 6.25 (≈ 4.03 µM) | 1.56 (≈ 1.01 µM) | 25 (≈ 16.1 µM) | > 100 | 100 (≈ 64.5 µM) |
| CCCCCC(=O)N[C@@H](C(=O)N[C@H](CCN)C(=O)NCC(=O)N[C@H](CO)C(=O)N[C@H](Cc1c[nH]c2ccccc12)C(=O)N[C@@H](CO)C(=O)N[C@@H](CCN)C(=O)N[C@H](CCN)C(=O)N[C@@H](Cc1ccccc1)C(=O)N[C@@H](CCC(=O)O)C(=O)N[C@H](C(=O)N[C@@H](C(=O)N[C@@H](C)C(=O)O)[C@@H](C)CC)C(C)C)C(C)C | > 100 | 3.13 (≈ 2.1 µM) | 6.25 (≈ 4.19 µM) | > 100 | 50 (≈ 33.5 µM) | 3.13 (≈ 2.1 µM) | 3.13 (≈ 2.1 µM) | 25 (≈ 16.7 µM) | > 100 | 100 (≈ 67 µM) |
| CC[C@H](C)[C@@H](NC(=O)[C@@H](NC(=O)[C@H](CCC(=O)O)NC(=O)[C@H](Cc1ccccc1)NC(=O)[C@@H](CCN)NC(=O)[C@H](CCN)NC(=O)[C@H](CO)NC(=O)[C@@H](Cc1c[nH]c2ccccc12)NC(=O)[C@@H](CO)NC(=O)CNC(=O)[C@@H](CCN)NC(=O)[C@H](NC(=O)CCC1c2ccccc2-c2ccccc21)C(C)C)C(C)C)C(=O)N[C@@H](C)C(=O)O | > 100 | 100 (≈ 61.9 µM) | > 100 | > 100 | > 100 | 6.25 (≈ 3.87 µM) | 1.56 (≈ 0.966 µM) | > 100 | > 100 | 100 (≈ 61.9 µM) |
| CC[C@H](C)[C@@H](NC(=O)[C@@H](NC(=O)[C@H](CCC(=O)O)NC(=O)[C@H](Cc1ccccc1)NC(=O)[C@@H](CCN)NC(=O)[C@H](CCN)NC(=O)[C@H](CO)NC(=O)[C@@H](Cc1c[nH]c2ccccc12)NC(=O)[C@@H](CO)NC(=O)CNC(=O)[C@@H](CCN)NC(=O)[C@H](NC(=O)CCc1c2ccccc2cc2ccccc12)C(C)C)C(C)C)C(=O)N[C@@H](C)C(=O)O | > 100 | 12.5 (≈ 7.68 µM) | 12.5 (≈ 7.68 µM) | > 100 | > 100 | 6.25 (≈ 3.84 µM) | 1.56 (≈ 0.959 µM) | 25 (≈ 15.4 µM) | > 100 | 50 (≈ 30.7 µM) |
| CC[C@H](C)[C@@H](NC(=O)[C@@H](NC(=O)[C@H](CCC(=O)O)NC(=O)[C@H](Cc1ccccc1)NC(=O)[C@@H](CCN)NC(=O)[C@H](CCN)NC(=O)[C@H](CO)NC(=O)[C@@H](Cc1c[nH]c2ccccc12)NC(=O)[C@@H](CO)NC(=O)CNC(=O)[C@@H](CCN)NC(=O)[C@H](NC(C)=O)C(C)C)C(C)C)C(=O)N[C@@H](C)C(=O)O | > 100 | 50 (≈ 34.8 µM) | 100 (≈ 69.6 µM) | > 100 | > 100 | 50 (≈ 34.8 µM) | 100 (≈ 69.6 µM) | > 100 | > 100 | > 100 |
| CC[C@H](C)[C@@H](NC(=O)[C@@H](NC(=O)[C@H](CCC(=O)O)NC(=O)[C@H](Cc1ccccc1)NC(=O)[C@@H](CCN)NC(=O)[C@H](CCN)NC(=O)[C@H](CO)NC(=O)[C@@H](Cc1c[nH]c2ccccc12)NC(=O)[C@@H](CO)NC(=O)CNC(=O)[C@@H](CCN)NC(=O)[C@H](NC(=O)CCCC[C@@H]1SC[C@@H]2NC(=O)N[C@@H]21)C(C)C)C(C)C)C(=O)N[C@@H](C)C(=O)O | > 100 | 50 (≈ 30.8 µM) | 50 (≈ 30.8 µM) | > 100 | > 100 | 50 (≈ 30.8 µM) | 50 (≈ 30.8 µM) | > 100 | > 100 | > 100 |
| CCCCCCCCCCCCCC(=O)N[C@@H](C(=O)N[C@H](CCN)C(=O)NCC(=O)N[C@H](CO)C(=O)N[C@H](Cc1c[nH]c2ccccc12)C(=O)N[C@@H](CO)C(=O)N[C@@H](CCN)C(=O)N[C@H](CCN)C(=O)N[C@@H](Cc1ccccc1)C(=O)N[C@@H](CCC(=O)O)C(=O)N[C@H](C(=O)N[C@@H](C(=O)N[C@@H](C)C(=O)O)[C@@H](C)CC)C(C)C)C(C)C | > 100 | > 100 | > 100 | > 100 | > 100 | > 100 | 12.5 (≈ 7.79 µM) | > 100 | > 100 | > 100 |
| CCCCCCCCCCCCCCCC(=O)N[C@@H](C(=O)N[C@H](CCN)C(=O)NCC(=O)N[C@H](CO)C(=O)N[C@H](Cc1c[nH]c2ccccc12)C(=O)N[C@@H](CO)C(=O)N[C@@H](CCN)C(=O)N[C@H](CCN)C(=O)N[C@@H](Cc1ccccc1)C(=O)N[C@@H](CCC(=O)O)C(=O)N[C@H](C(=O)N[C@@H](C(=O)N[C@@H](C)C(=O)O)[C@@H](C)CC)C(C)C)C(C)C | > 100 | > 100 | > 100 | > 100 | > 100 | > 100 | 50 (≈ 30.6 µM) | > 100 | > 100 | > 100 |
